# Laboratory results published in ChEMBL document CHEMBL1933009, “SAR studies on the central phenyl ring of substituted biphenyl oxazolidinone-potent CETP inhibitors” (Bioorg Med Chem Lett, 2012).
# pIC50: −log10 of the molar value.
# Assays:
# [1] = biological target: T1, Cholesteryl ester transfer protein (Homo sapiens, UniProt P11597); assay: Inhibition of CETP-mediated neutral lipid transfer by fluorometric analysis
# T1 sequence (P11597 whole entry): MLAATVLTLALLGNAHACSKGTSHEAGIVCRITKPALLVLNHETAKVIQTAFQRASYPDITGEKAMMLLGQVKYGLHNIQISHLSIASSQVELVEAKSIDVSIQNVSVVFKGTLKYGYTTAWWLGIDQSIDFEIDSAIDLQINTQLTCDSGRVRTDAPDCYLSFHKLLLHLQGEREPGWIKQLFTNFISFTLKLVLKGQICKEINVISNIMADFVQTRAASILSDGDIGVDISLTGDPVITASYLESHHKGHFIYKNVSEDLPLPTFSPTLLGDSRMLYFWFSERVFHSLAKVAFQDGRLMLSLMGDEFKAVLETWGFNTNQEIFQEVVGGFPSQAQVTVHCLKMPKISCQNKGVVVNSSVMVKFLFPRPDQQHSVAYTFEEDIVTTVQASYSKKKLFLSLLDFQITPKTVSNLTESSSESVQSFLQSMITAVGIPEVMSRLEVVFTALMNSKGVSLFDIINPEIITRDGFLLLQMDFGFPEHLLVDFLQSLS
# [2] = test system: Mus musculus; assay: Cardioprotective activity in transgenic B6 mouse expressing cynomolgus monkey CETP assessed as increase in HDL-cholesterol level at 10 mg/kg, po BID measured after 24 hrs of first dose; type: functional
Compound,pIC50 [1],Activity [2] [mg/dL]
COc1cc(F)c(C(C)C)cc1-c1ccc(N)cc1CN1C(=O)O[C@H](c2cc(C(F)(F)F)cc(C(F)(F)F)c2)[C@@H]1C,6.53,
COc1cc(F)c(C(C)C)cc1-c1ccc(C(C)C)cc1CN1C(=O)O[C@H](c2cc(C(F)(F)F)cc(C(F)(F)F)c2)[C@@H]1C,7.27,
CCCSc1ccc(-c2cc(C(C)C)c(F)cc2OC)c(CN2C(=O)O[C@H](c3cc(C(F)(F)F)cc(C(F)(F)F)c3)[C@@H]2C)c1,5.91,
COc1cc(F)c(C(C)C)cc1-c1ccc(SC(C)C)cc1CN1C(=O)O[C@H](c2cc(C(F)(F)F)cc(C(F)(F)F)c2)[C@@H]1C,6.16,
COc1cc(F)c(C(C)C)cc1-c1ccc(C2=CCCC2)cc1CN1C(=O)O[C@H](c2cc(C(F)(F)F)cc(C(F)(F)F)c2)[C@@H]1C,6.59,
COc1cc(F)c(C(C)C)cc1-c1ccc(C(C)(C)O)cc1CN1C(=O)O[C@H](c2cc(C(F)(F)F)cc(C(F)(F)F)c2)[C@@H]1C,7.14,
COc1cc(F)c(C(C)C)cc1-c1ccc(S(C)(=O)=O)cc1CN1C(=O)O[C@H](c2cc(C(F)(F)F)cc(C(F)(F)F)c2)[C@@H]1C,7.47,
CCCS(=O)(=O)c1ccc(-c2cc(C(C)C)c(F)cc2OC)c(CN2C(=O)O[C@H](c3cc(C(F)(F)F)cc(C(F)(F)F)c3)[C@@H]2C)c1,5.16,
COc1cc(F)c(C(C)C)cc1-c1ccc(S(=O)(=O)C(C)C)cc1CN1C(=O)O[C@H](c2cc(C(F)(F)F)cc(C(F)(F)F)c2)[C@@H]1C,5.59,
COc1cc(F)c(C(C)C)cc1-c1ccc(C(F)(F)F)cc1CN1C(=O)O[C@H](c2cc(C(F)(F)F)cc(C(F)(F)F)c2)[C@@H]1C [ANACETRAPIB],,28

# Further lines, with some results ahead:
pIC50 [1],Compound,Activity [2] [mg/dL]
7.51,COc1cc(F)c(C(C)C)cc1-c1ccccc1CN1C(=O)O[C@H](c2cc(C(F)(F)F)cc(C(F)(F)F)c2)[C@@H]1C,
7.60,COc1cc(F)c(C(C)C)cc1-c1ccc(F)cc1CN1C(=O)O[C@H](c2cc(C(F)(F)F)cc(C(F)(F)F)c2)[C@@H]1C,8
7.78,COc1cc(F)c(C(C)C)cc1-c1ccc(Cl)cc1CN1C(=O)O[C@H](c2cc(C(F)(F)F)cc(C(F)(F)F)c2)[C@@H]1C,12.7
7.70,COc1cc(F)c(C(C)C)cc1-c1ccc(Br)cc1CN1C(=O)O[C@H](c2cc(C(F)(F)F)cc(C(F)(F)F)c2)[C@@H]1C,23
7.63,COc1cc(F)c(C(C)C)cc1-c1ccc(I)cc1CN1C(=O)O[C@H](c2cc(C(F)(F)F)cc(C(F)(F)F)c2)[C@@H]1C,
7.63,COc1cc(F)c(C(C)C)cc1-c1ccc(C#N)cc1CN1C(=O)O[C@H](c2cc(C(F)(F)F)cc(C(F)(F)F)c2)[C@@H]1C,14.8
7.88,COc1cc(F)c(C(C)C)cc1-c1ccc([N+](=O)[O-])cc1CN1C(=O)O[C@H](c2cc(C(F)(F)F)cc(C(F)(F)F)c2)[C@@H]1C,21.5
7.78,COc1cc(F)c(C(C)C)cc1-c1ccc(C)cc1CN1C(=O)O[C@H](c2cc(C(F)(F)F)cc(C(F)(F)F)c2)[C@@H]1C,13.8
7.60,COc1cc(F)c(C(C)C)cc1-c1ccc(C(C)(C)C)cc1CN1C(=O)O[C@H](c2cc(C(F)(F)F)cc(C(F)(F)F)c2)[C@@H]1C,21
7.79,COc1cc(F)c(C(C)C)cc1-c1ccc(SC)cc1CN1C(=O)O[C@H](c2cc(C(F)(F)F)cc(C(F)(F)F)c2)[C@@H]1C,16.4
7.71,COc1cc(F)c(C(C)C)cc1-c1ccc(SC(F)(F)F)cc1CN1C(=O)O[C@H](c2cc(C(F)(F)F)cc(C(F)(F)F)c2)[C@@H]1C,12.4
7.74,COc1cc(F)c(C(C)C)cc1-c1ccc(C(C)(C)F)cc1CN1C(=O)O[C@H](c2cc(C(F)(F)F)cc(C(F)(F)F)c2)[C@@H]1C,23.2
7.61,COc1cc(F)c(C(C)C)cc1-c1ccc(C2CC2)cc1CN1C(=O)O[C@H](c2cc(C(F)(F)F)cc(C(F)(F)F)c2)[C@@H]1C,20.6
7.57,COc1cc(F)c(C(C)C)cc1-c1ccc(S(=O)(=O)C(F)(F)F)cc1CN1C(=O)O[C@H](c2cc(C(F)(F)F)cc(C(F)(F)F)c2)[C@@H]1C,
